In patent US20210139484A1, “DIHYDROISOQUINOLINE-2(1H)-CARBOXAMIDE AND RELATED COMPOUNDS AND THEIR USE IN TREATING MEDICAL CONDITIONS” (GOSSAMER BIO SERVICES, INC., priority 2018, published 2021) one finds IC50 data, which are given here for 42 compounds.

One test has as its target T1, human HPK1 protein (Homo sapiens, UniProt Q92918).
T1 construct: recombinant human HPK1 protein (a.a. 1-346) was expressed in Sf9 insect cells; GST (N); purchased Signalchem M23-11G; host or cells: Sf9 insect cells (baculovirus)
T1 sequence (Q92918 1-346): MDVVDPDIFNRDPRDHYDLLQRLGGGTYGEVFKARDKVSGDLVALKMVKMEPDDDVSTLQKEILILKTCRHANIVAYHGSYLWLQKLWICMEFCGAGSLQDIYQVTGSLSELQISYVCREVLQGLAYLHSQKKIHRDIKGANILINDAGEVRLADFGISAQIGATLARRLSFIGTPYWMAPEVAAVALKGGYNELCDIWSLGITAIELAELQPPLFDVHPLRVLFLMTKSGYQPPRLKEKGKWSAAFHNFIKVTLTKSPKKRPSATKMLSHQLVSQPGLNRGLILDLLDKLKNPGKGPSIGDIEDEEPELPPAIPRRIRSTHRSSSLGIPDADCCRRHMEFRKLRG
As to the kind of experiment: Human HPK1 protein TR-FRET assay. In kind it is biochemical. The settings on record: 1 mM ATP, Table 19. The method, then: Exemplary compounds from the above Examples were tested for ability to inhibit HPK1 using a human HPK1 protein TR-FRET Assay. Assay procedures and results are described below.
N-terminal GST-tagged recombinant human HPK1 protein (a.a. 1-346) was expressed in Sf9 insect cells using a baculovirus expression system (Signalchem Catalog #M23-11G). The enzyme was diluted in assay buffer (50 mM Tris pH 7.5, 1 mM MgCl2, 0.01% NP-40 and 2 mM DTT) to obtain a 4× working solution at a concentration of 40 nM HPK1 enzyme.
A 5 μM stock of ULight™ CREBtide peptide RRPSYRK (Perkin Elmer Product No. TRF0107-M) derived from human cAMP Response Element Binding (CREB) Protein was prepared in storage buffer containing 50 mM Tris-HCl (pH 7.4), 0.9% NaCl, 0.1% BSA, and 0.05% sodium azide. The CREBtide substrate was diluted in assay buffer (50 mM Tris pH 7.5, 1 mM MgCl2, 0.01% NP-40, 2 mM DTT) with 2 mM ATP to a final concentration of 200 nM CREBtide peptide to obtain a 2× working solution of substrate. HPK1 enzyme and CREBtide substrate solutions were mixed with compounds diluted in DMSO to obtain a final concentration of enzyme, substrate, and ATP of 10 nM, 100 nM, and 1 mM, respectively, in 1% DMSO. The final assay mixture was incubated at room temperature for 60 minutes.
A solution of Europium-labeled anti-phospho-CREB (Ser133) antibody (Perkin Elmer Product No. TRF0200-M), EDTA and LANCE™ Detection Buffer (Perkin Elmer Product No. CR97-100) were added to each well to obtain a final concentration of 2 nM antibody, 10 mM EDTA and 1× LANCE buffer. The resulting mixture was incubated at room temperature for 60 minutes.
The fluorescence resonance energy transfer (FRET) signal was measured on an Envision plate reader: Excitation filter=340 nm, APC emission=665 nm, Europium emission=615 nm, dichroic mirror=D400/D630, delay time=100 μs, and integration time=200 μs. The half maximal inhibitory concentration (IC50) values for compounds were calculated from the quotient of the fluorescence signal at 665 nm divided by the fluorescence signal at 615 nm. The quotient of the fluorescence signals in the presence of DMSO without compound is set as 100 percent enzymatic activity. A 4-parameter logistic model in PRISM (GraphPad) was used to calculate the IC50 for a given compound.
In turn, `CCN1CCN(Cc2ccc(NC(=O)N3CCc4ccc(Oc5ccnc6[nH]c(C)cc56)cc4[C@@H]3C)cc2C(F)(F)F)CC1` [V-29] gave an IC50 of less than 0.5 µM.
The same measure, in the same setting: as for `CCCC1CN(C(=O)Nc2ccc(CN3CCN(CC)CC3)c(C(F)(F)F)c2)Cc2cc(Oc3ccnc4[nH]c(C)cc34)ccc21` (stereo not drawn) [IV-37], the figure is less than 0.5 µM.
For the compound `CCN1CCN(Cc2ccc(NC(=O)N3Cc4cc(Oc5ccnc6[nH]c(C)cc56)cnc4C(C)C3)cc2C(F)(F)F)CC1` (single isomer, unassigned) [VII-20], the IC50 is less than 0.5 µM.
The compound `Cc1cc2c(Oc3ccc4c(c3)[C@H](C)N(C(=O)Nc3cnc(OCCN(C)C)c(C(F)(F)F)c3)CC4)ccnc2[nH]1` [VI-15] displayed an IC50 of 0.5 to 5 µM.
For the compound `CCN1CCN(Cc2ccc(NC(=O)N3CCc4ccc(Oc5ccnc(C#N)c5)cc4[C@@H]3C)cc2C(F)(F)F)CC1` [V-11], the IC50 is 0.5 to 5 µM.
With `CCN1CCN(Cc2ccc(NC(=O)N3CCc4ncc(Oc5ccnc6[nH]ncc56)cc4C3C)cc2C(F)(F)F)CC1` (single isomer, unassigned) [VIII-5], the IC50 lay in the range of 0.5 to 5 µM.
In turn, `CCN1CCN(Cc2ccc(NC(=O)N3CCc4ccc(Oc5ccnc6[nH]c(C7CC7)cc56)cc4[C@@H]3C)cc2C(F)(F)F)CC1` [V-26] returned an IC50 of less than 0.5 µM.
The compound `Cc1cc2c(Oc3ccc4c(c3)[C@H](C)N(C(=O)Nc3cnc(OC5CN(C)C5)c(C(F)(F)F)c3)CC4)ccnc2[nH]1` [VI-12] came in with an IC50 of 0.5 to 5 µM.
Still for that read-out and setting: as for `CCN1CCN(Cc2ccc(NC(=O)N3CCc4cc(Br)c(Oc5ccnc6[nH]ccc56)cc4C3C)cc2C(F)(F)F)CC1` (stereo not drawn) [IV-13], the figure is less than 0.5 µM; as for `CCC1CN(C(=O)Nc2ccc(CN3CCN(CC)CC3)c(C(F)(F)F)c2)Cc2cc(Oc3ccnc4[nH]ccc34)ccc21` (stereo not drawn) [IV-22], less than 0.5 µM; as for `CCN1CCN(Cc2ccc(NC(=O)N3CCc4ccc(Oc5ncnn6cccc56)cc4C3)cc2C(F)(F)F)CC1` [compound 1, N-[4-[(4-Ethylpiperazin-1-yl)methyl]-3-(trifluoromethyl)phenyl]-7-[pyrrolo[2,1-f][1,2,4]triazin-4-yloxy]-1,2,3,4-tetrahydroisoquinoline-2-carboxamide], less than 0.5 µM.
For `CCN1CCN(Cc2ccc(NC(=O)N3CCc4ccc(Oc5ccnc6c5CCC(=O)N6)cc4C3)cc2C(F)(F)F)CC1` [II-11], the IC50 was less than 0.5 µM.
As for `Cc1cc2c(Oc3ccc4c(c3)[C@H](C)N(C(=O)Nc3cnc5c(c3)CCCN5C3CCN(C)CC3)CC4)ccnc2[nH]1` [X-8], the IC50 is 5 to 10 µM.
In turn, `CCN1CCN(Cc2ccc(NC(=O)N3CCc4ccc(Oc5ccnc6[nH]ncc56)cc4[C@@H]3C)cc2C(F)(F)F)CC1` [V-5] had an IC50 of less than 0.5 µM.
Still for that read-out and setting: as for `CCN1CCN(Cc2ccc(NC(=O)N3CCc4ccc(Oc5ccnc(NC(=O)C6CC6)c5)cc4C3)cc2C(F)(F)F)CC1` [II-15], the figure is less than 0.5 µM; as for `Cc1cc2c(Oc3cnc4c(c3)CN(C(=O)Nc3cnc(OC5CCN(C)CC5)c(C(F)(F)F)c3)CC4C)ncnc2[nH]1` (stereo not drawn) [VII-13], less than 0.5 µM; as for `CCN1CCN(Cc2ccc(NC(=O)N3CCc4nc(C)c(Oc5ccnc6[nH]ccc56)cc4C3)cc2C(F)(F)F)CC1` [X-5], less than 0.5 µM.
Same read-out and setting: as for `CCc1cc2c(Oc3ccc4c(c3)[C@H](C)N(C(=O)Nc3ccc(CN5CCN(CC)CC5)c(C(F)(F)F)c3)CC4)ccnc2[nH]1` [V-22], the figure is less than 0.5 µM; as for `CCN1CCN(Cc2ccc(NC(=O)N3Cc4cc(Oc5ccnc6[nH]ncc56)cnc4C(C)C3)cc2C(F)(F)F)CC1` (stereo not drawn) [VII-17], less than 0.5 µM.
Consider `CCN1CCN(Cc2ccc(NC(=O)N3CCc4ccc(Oc5ccnc(C(=O)NC)c5)cc4[C@@H]3C)cc2C(F)(F)F)CC1` [V-13], for which the IC50 is less than 0.5 µM.
The same measure, in the same setting: the same measure for `CCN1CCN(Cc2ccc(NC(=O)N3CCc4cc(F)c(Oc5ccnc6[nH]ccc56)cc4C3)cc2C(F)(F)F)CC1` [compound 3, 7-((1H-Pyrrolo[2,3-b]pyridin-4-yl)oxy)-N-(4-((4-ethylpiperazin-1-yl)methyl)-3-(trifluoromethyl)phenyl)-6-fluoro-3,4-dihydroisoquinoline-2(1H)-carboxamide]: less than 0.5 µM.

The test is the same for the next values; noted with them: 1 mM ATP, Table 20.
The compound `CC[C@H]1CN(C(=O)Nc2ccc(CN3CCNCC3)c(C(F)(F)F)c2)Cc2cc(Oc3ccnc4[nH]c(-c5nnc(C)o5)cc34)cnc21` [XIV-113] yielded an IC50 of less than 0.5 µM.
On the same count and under the same terms, as for `CC[C@@H]1CN(C(=O)Nc2cnc(OC3CCN(C)CC3)c(C(F)(F)F)c2)Cc2cc(Oc3ccnc4[nH]c(CCOC)cc34)cnc21` [XIV-34], the figure is less than 0.5 µM.
The compound `CN1CCN(Cc2ncc(NC(=O)N3CCc4ccc(Oc5c(F)cnc6[nH]c(-c7cn[nH]c7)cc56)cc4C3)cc2C(F)(F)F)CC1` [XII-8] gave an IC50 of less than 0.5 µM.
Compound `CC[C@H]1CN(C(=O)Nc2ccc(CN3CCN(CCO)CC3)c(C(F)(F)F)c2)Cc2cc(Oc3ccnc4[nH]c(CO)cc34)ccc21` [XV-22] displayed an IC50 of less than 0.5 µM.
Same read-out and setting: the same measure for `CCC1CN(C(=O)Nc2ccc(CN3CCN(CC)CC3)c(C(F)(F)F)c2)Cc2cc(Oc3ccnc4[nH]c(C5CCOCC5)cc34)cnc21` (stereo not drawn) [XIV-70]: less than 0.5 µM.
With `Cc1cc2c(Oc3cnc4c(c3)CN(C(=O)Nc3ccc(CN5CCN(C)CC5)c(OC(F)F)c3)C[C@H]4C)ccnc2[nH]1` [XIV-93], the IC50 was less than 0.5 µM.
The same measure, in the same setting: as for `CCN1CCN(Cc2ccc(NC(=O)N3Cc4cc(Oc5ccnc6[nH]c(C)nc56)cnc4C(C)C3)cc2C(F)(F)F)CC1` (single isomer, unassigned) [XIV-27], the figure is 5 to 10 µM; as for `CCN1CCN(Cc2ccc(NC(=O)N3Cc4cc(Oc5cc(N)ncc5F)cnc4C(C)C3)cc2C(F)(F)F)CC1` (single isomer, unassigned) [XIV-18], 5 to 10 µM; as for `CCN1CCN(Cc2ccc(NC(=O)N3CCc4ncc(Oc5cccc6[nH]ccc56)cc4C3C)cc2C(F)(F)F)CC1` (stereo not drawn) [XI-12], more than 10 µM.
Still for that read-out and setting: as for `CCN1CCN(Cc2ccc(NC(=O)N3Cc4cc(Oc5ccnc6[nH]c(C)cc56)cnc4[C@H](C)C3)cc2C(F)(F)F)CC1` [XI-5], the figure is less than 0.5 µM; as for `CC[C@@H]1CN(C(=O)Nc2ccc(CN3CCNCC3)c(C(F)(F)F)c2)Cc2cc(Oc3ccnc4[nH]c(C5(O)COC5)cc34)cnc21` [XIV-48], less than 0.5 µM.
Still for that read-out and setting: as for `CCN1CCN(Cc2ccc(NC(=O)N3CCc4ccc(Oc5cc(NC(=O)OC)ncc5F)cc4[C@@H]3C)cc2C(F)(F)F)CC1` [XIII-13], the figure is less than 0.5 µM.
Consider `CC[C@H]1CN(C(=O)Nc2ccc(CN3CCNCC3)c(C(F)(F)F)c2)Cc2cc(Oc3ccnc4[nH]c(-c5noc(=O)[nH]5)cc34)cnc21` [XIV-135], for which the IC50 is less than 0.5 µM.
On the same count and under the same terms, as for `C[C@H]1CN(C(=O)Nc2ccc(CN3CCN(C)CC3)c(C(F)(F)F)c2)Cc2cc(Oc3c(F)cnc4[nH]c(C(=O)N(C)C)cc34)ccc21` [XV-39], the figure is less than 0.5 µM; as for `CC[C@H]1Cc2ncc(Oc3ccnc4[nH]ccc34)cc2CN1C(=O)Nc1ccc(CN2CCN(CC)CC2)c(C(F)(F)F)c1` [XVIII-16], less than 0.5 µM.
Still for that read-out and setting: as for `CC[C@@H]1CN(C(=O)Nc2ccc(CN3CCN(CCO)CC3)c(C(F)(F)F)c2)Cc2cc(Oc3ccnc4[nH]c(C5CC5)cc34)ccc21` [XV-26], the figure is less than 0.5 µM; as for `CN1CCN(Cc2ncc(NC(=O)N3CCc4ccc(Nc5c(F)cnc6[nH]c(-c7cnn(C)c7)cc56)cc4C3)cc2C(F)(F)F)CC1` [XVII-2], less than 0.5 µM; as for `CC[C@@H]1CN(C(=O)Nc2ccc(CN3CCN(CCO)CC3)c(C(F)F)c2)Cc2cc(Oc3ncnc4[nH]c(C5CC5)cc34)ccc21` [XV-42], less than 0.5 µM.
The compound `C[C@H]1c2cc(Oc3ccnc4[nH]c(CO)cc34)ccc2CCN1C(=O)Nc1ccc(CN2CCN(CCO)CC2)c(C(F)(F)F)c1` [XIII-5] displayed a concentration for half-maximal inhibition (IC50) of less than 0.5 µM.
The same measure, in the same setting: the same measure for `C[C@H]1c2cc(Oc3ccnc4[nH]c(C5(O)COC5)cc34)ccc2CCN1C(=O)Nc1ccc(CN2CCN(CCO)CC2)c(C(F)(F)F)c1` [XIII-6]: less than 0.5 µM.
`C[C@H]1CN(C(=O)Nc2ccc(CN3CCN(C)CC3)c(C(F)(F)F)c2)Cc2cc(Oc3ccnc4[nH]c(C(N)=O)cc34)cnc21` [XIV-86] came in with an IC50 of less than 0.5 µM.
